From ChEMBL document CHEMBL1140941 (J Med Chem, 2009)
Calls of active or inactive are those of the source. No cut-off for these calls is given here.

Experiments:
[1] = biological target: Vitamin D3 receptor (Homo sapiens) (UniProt P11473); experiment: Agonist activity at VP16-VDR expressed in african green monkey CV1 cells co-expressing MH100 up to 10 uM by luciferase reporter gene assay relative to control; assay type: functional, cell-based; settings: CV-1
[2] = biological target: Androgen receptor (Homo sapiens, UniProt P10275); experiment: Antagonist activity at gal-AR expressed in african green monkey CV1 cells co-expressing MH100 with GRIP1 co-factor by luciferase reporter gene assay; assay type: functional, cell-based, CV-1
Sequence of Androgen receptor (P10275 whole entry): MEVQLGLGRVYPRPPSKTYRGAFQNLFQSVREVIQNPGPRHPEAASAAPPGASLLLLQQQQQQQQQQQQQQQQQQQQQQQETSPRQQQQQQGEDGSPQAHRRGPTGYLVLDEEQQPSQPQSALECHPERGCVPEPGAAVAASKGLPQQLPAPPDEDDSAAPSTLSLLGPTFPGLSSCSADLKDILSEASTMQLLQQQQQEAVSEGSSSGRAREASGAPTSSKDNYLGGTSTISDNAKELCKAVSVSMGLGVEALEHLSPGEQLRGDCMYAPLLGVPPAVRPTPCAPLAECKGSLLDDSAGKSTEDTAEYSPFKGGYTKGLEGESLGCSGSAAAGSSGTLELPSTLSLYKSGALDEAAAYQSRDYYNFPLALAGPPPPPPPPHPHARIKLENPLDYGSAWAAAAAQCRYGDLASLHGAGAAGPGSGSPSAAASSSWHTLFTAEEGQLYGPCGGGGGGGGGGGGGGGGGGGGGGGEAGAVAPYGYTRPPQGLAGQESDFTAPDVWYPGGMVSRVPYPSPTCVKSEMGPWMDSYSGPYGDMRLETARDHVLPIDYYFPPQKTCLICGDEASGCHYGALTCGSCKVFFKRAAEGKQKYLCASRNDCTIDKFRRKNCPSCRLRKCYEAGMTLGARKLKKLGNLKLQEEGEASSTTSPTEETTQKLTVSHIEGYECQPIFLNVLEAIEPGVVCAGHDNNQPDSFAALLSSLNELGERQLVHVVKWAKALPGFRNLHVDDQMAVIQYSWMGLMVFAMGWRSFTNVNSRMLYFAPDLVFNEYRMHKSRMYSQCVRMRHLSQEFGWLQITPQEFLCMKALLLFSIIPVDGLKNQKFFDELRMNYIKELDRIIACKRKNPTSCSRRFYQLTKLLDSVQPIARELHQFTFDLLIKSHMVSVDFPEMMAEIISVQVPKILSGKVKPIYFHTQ

[3] = biological target: T1, Glucocorticoid receptor (Homo sapiens) (UniProt P04150); experiment: Agonist activity at gal-GR expressed in african green monkey CV1 cells co-expressing MH100 by luciferase reporter gene assay; assay type: functional, cell-based; settings: CV-1
T1 sequence (whole entry): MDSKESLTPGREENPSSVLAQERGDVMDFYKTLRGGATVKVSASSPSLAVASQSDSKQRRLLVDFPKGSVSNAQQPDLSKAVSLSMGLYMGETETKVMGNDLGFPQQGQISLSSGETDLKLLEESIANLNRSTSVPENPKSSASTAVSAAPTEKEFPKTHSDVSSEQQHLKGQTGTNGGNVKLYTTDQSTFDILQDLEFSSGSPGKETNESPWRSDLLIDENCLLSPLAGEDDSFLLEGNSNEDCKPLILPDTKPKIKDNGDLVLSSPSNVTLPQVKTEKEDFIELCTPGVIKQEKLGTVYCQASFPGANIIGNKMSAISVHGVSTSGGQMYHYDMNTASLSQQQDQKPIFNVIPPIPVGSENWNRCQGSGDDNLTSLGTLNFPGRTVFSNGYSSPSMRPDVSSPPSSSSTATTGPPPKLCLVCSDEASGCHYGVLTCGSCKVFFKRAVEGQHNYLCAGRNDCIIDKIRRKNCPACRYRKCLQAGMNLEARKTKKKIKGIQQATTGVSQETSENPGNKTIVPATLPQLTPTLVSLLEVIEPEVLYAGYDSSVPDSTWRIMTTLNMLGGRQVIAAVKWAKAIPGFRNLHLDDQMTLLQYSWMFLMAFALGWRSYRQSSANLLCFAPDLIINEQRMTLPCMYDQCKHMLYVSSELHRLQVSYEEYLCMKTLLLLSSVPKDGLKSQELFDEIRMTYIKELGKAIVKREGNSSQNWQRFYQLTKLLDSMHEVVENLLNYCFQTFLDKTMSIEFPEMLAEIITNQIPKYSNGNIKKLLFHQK

[4] = biological target: Vitamin D3 receptor (Homo sapiens) (UniProt P11473); experiment: Agonist activity at VP16-VDR expressed in african green monkey CV1 cells co-expressing MH100 by luciferase reporter gene assay; assay type: functional, cell-based; settings: CV-1
[5] = biological target: T2, Progesterone receptor (Homo sapiens) (UniProt P06401); experiment: Agonist activity at gal-PR expressed in african green monkey CV1 cells co-expressing MH100 up to 10 uM by luciferase reporter gene assay relative to control; assay type: functional, cell-based; settings: CV-1
T2 sequence (whole entry): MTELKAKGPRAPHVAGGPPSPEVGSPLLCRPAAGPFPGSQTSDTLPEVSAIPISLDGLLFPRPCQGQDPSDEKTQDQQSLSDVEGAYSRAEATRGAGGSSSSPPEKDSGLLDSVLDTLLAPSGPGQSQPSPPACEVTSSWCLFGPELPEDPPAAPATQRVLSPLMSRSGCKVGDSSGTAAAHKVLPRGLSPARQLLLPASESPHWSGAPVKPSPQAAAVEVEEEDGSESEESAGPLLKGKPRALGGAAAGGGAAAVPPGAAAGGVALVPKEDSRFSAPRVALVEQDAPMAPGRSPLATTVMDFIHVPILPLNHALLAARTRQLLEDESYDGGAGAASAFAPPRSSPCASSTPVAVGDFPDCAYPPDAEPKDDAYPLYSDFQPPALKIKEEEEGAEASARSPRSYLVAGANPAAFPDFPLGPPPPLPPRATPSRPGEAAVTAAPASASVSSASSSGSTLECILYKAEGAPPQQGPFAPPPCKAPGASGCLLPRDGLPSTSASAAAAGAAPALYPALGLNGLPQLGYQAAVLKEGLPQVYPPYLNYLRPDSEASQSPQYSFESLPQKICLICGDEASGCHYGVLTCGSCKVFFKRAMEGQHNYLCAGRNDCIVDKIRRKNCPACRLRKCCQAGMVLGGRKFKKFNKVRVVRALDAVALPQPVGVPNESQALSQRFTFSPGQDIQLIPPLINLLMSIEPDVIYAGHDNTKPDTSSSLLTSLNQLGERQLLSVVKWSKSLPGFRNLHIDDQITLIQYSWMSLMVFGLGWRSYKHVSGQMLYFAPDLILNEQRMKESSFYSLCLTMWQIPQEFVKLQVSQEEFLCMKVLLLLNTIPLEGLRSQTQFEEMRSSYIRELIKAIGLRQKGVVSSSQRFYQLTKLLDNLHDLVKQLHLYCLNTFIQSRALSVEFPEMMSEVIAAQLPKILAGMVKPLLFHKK

[6] = biological target: Steroid hormone receptor ERR1 (Homo sapiens) (UniProt P11474); experiment: Antagonist activity at ERRalpha expressed in african green monkey CV1 cells by luciferase reporter gene assay; assay type: functional, cell-based; settings: CV-1
Sequence of Steroid hormone receptor ERR1 (Homo sapiens) (P11474 whole entry): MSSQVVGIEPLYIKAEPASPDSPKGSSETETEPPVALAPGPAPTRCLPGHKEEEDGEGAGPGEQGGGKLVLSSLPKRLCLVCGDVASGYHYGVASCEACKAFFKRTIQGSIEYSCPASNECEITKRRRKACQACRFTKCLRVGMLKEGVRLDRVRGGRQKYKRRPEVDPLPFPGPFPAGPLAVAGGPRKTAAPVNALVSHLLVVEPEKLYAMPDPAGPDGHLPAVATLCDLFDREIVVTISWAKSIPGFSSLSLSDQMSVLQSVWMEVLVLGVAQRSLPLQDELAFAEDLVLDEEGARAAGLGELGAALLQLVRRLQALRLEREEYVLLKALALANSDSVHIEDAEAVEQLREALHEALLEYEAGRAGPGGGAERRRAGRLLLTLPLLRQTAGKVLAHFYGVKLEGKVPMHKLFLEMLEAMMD

[7] = biological target: Retinoic acid receptor gamma (Homo sapiens) (UniProt P13631); experiment: Agonist activity at gal-RARgamma expressed in african green monkey CV1 cells co-expressing MH100 up to 10 uM by luciferase reporter gene assay relative to control; assay type: functional, cell-based; settings: CV-1
Sequence of Retinoic acid receptor gamma (Homo sapiens) (P13631 whole entry): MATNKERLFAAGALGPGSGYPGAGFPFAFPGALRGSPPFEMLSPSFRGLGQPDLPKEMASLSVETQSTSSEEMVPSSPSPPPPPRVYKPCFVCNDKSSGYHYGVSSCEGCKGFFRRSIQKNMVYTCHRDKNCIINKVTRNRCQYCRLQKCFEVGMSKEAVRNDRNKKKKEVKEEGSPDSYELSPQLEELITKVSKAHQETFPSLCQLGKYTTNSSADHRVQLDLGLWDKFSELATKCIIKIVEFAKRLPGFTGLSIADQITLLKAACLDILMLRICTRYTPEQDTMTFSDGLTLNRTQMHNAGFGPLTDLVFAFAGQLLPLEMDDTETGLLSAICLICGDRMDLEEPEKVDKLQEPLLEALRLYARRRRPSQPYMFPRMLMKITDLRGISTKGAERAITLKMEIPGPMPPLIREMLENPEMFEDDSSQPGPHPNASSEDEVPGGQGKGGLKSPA

[8] = Half life in CD rat at 3 mg/kg, po; assay type: ADME, organism-based; parameters: dose 3 mg/kg, route oral; settings: in vivo
[9] = biological target: T3, Peroxisome proliferator-activated receptor alpha (Homo sapiens) (UniProt Q07869); experiment: Agonist activity at PPARalpha expressed in african green monkey CV1 cells co-expressing MH100 up to 10 uM by luciferase reporter gene assay relative to control; assay type: functional, cell-based; settings: CV-1
T3 sequence (whole entry): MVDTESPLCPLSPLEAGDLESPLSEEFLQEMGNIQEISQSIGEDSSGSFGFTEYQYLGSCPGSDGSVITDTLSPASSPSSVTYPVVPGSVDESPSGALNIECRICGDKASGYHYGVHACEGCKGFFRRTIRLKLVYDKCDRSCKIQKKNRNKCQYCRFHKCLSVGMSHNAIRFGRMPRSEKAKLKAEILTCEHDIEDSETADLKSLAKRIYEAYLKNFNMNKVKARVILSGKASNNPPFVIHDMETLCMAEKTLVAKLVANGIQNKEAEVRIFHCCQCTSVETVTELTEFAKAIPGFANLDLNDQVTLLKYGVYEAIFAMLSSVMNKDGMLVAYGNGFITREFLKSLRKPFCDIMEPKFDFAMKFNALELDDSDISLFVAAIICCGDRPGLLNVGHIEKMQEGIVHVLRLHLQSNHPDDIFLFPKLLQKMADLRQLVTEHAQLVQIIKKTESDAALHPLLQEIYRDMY

[10] = biological target: Retinoic acid receptor RXR-alpha (Homo sapiens) (UniProt P19793); experiment: Agonist activity at RXRalpha-LBD expressed in african green monkey CV1 cells co-expressing MH100 by luciferase reporter gene assay; assay type: functional, cell-based; settings: CV-1
Sequence of Retinoic acid receptor RXR-alpha (Homo sapiens) (P19793 whole entry, the tested form may be a part): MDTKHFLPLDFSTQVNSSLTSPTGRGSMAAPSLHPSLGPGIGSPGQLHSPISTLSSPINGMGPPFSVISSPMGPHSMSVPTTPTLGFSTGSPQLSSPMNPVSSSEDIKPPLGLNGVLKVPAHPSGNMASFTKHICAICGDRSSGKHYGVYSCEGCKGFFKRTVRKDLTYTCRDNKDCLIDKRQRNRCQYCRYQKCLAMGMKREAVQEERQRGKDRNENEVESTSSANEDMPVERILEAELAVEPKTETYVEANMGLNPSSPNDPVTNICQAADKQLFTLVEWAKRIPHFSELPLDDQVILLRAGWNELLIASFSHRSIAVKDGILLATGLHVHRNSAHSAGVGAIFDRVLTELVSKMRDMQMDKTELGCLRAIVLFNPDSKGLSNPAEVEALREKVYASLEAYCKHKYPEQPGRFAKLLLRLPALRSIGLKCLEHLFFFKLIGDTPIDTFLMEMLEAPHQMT

Sequence of Vitamin D3 receptor (Homo sapiens) (P11473 whole entry): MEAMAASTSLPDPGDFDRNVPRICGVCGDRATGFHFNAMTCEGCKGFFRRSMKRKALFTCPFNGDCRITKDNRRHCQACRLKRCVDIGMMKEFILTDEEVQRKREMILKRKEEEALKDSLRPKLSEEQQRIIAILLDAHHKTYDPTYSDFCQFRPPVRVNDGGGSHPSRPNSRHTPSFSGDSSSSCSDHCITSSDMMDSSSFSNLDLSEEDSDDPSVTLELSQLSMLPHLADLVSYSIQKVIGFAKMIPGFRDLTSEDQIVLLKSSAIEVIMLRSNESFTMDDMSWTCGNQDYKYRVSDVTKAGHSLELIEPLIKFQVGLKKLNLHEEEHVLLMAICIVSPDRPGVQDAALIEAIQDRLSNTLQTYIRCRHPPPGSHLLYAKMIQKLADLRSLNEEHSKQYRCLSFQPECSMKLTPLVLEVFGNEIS

- Activity [1]: inactive
- IC50 [2]: 10 µM
- Activity [3]: inactive
- Activity [4]: inactive
- Activity [5]: inactive
- Activity [6]: inactive
- Activity [7]: inactive
- half-life [8]: 24.6 h
- Activity [9]: inactive
- Activity [10]: inactive
SMILES: CC(C)OC(=O)C1=CN(C(=O)c2ccc(F)c(F)c2)CC(C)(C)c2c1[nH]c1ccccc21 [TUROFEXORATE ISOPROPYL]
